US5674906A, “Stilbene compounds and pharmaceutical compositions containing them” (Ajinomoto Co., Inc., priority 1995, dated 1997)
Converted amounts (≈) assume the structure as drawn. Counter-ions that a name gives are not always drawn. Like-named read-outs stand apart in the source and are kept apart here.

What was measured:
[1] = test system: Mouse P388 leukemia cells; experiment: Evaluation of cytotoxicity: growth inhibition of mouse P388 leukemia cells (MTT method); type: cell-based; details: 48 h, 37° C., 2 days, read-out: in vitro IC50 (50% growth inhibitory concentration)
Method: Evaluation of Cytotoxicity:
Mouse P388 leukemia cells were used as cancer cells, and a RPMI-1640 medium containing 5-μM 2-mercaptoethanol and 10% fetal bovine serum was used in the incubation. The above-mentioned cells were inoculated on a 96-well microplate in an amount of 1×10^4 cells/50 μl/well, and an aqueous solution of a test compound (4 μg/ml) was added thereto in an amount of 25 μl/well. The mixture was incubated at 37° C. for 2 days. Then, the number of live cells were counted using the MTT method, and a dose-response curve was then prepared. A 50% growth inhibitory concentration (IC50) given for the test compound was calculated according to the dose-response curve.

Colon 26 = experiment: Test for the pharmaceutical effect on mice: tumor growth inhibition of subcutaneously implanted Colon 26; details: Mus musculus, Colon 26, iv, 504 h, read-out: in vivo I.R. (tumor growth inhibition rate)
Method: Test for the Pharmaceutical Effect on Mice:
Colon 26 which had been cloned subcutaneously in mice was cut with scissors, and implanted subcutaneously in mice by means of a trocar. One week later, the tumors were measured using calipers, and the volumes of the tumors were calculated. The mice were grouped (each group consisting of 3 mice). The test compound was dissolved with dimethylsulfoxide and diluted with 5% by volume Tween 80/saline. A 0.2 ml of the solution was injected intravenously once a day on Day 7, Day 11 and Day 15 after the implantation. On Day 21 after the implantation, the volumes of the tumors were measured. The volume of the tumor and the tumor growth inhibition rate (I.R.) were calculated using the following expressions. [formula]
^a) Administered intravenously once a day on day 7, day 11 and day 15

[2] = Minimum dose which shows death immediately after injection (toxic dose); type: in vivo, mice; details: acute death immediately after injection
[3] = 40 mg/kg, intravenously once a day on day 7, day 11 and day 15, tumor volume on Day 21
[4] = 10 mg/kg, intravenously once a day on day 7, day 11 and day 15, tumor volume on Day 21
[5] = 80 mg/kg, intravenously once a day on day 7, day 11 and day 15, tumor volume on Day 21

| Compound | IC50 [1] [ng/mL] | Toxic Dose (minimum dose which show death immediately after injection) [2] [mg/kg] | also measured |
| --- | --- | --- | --- |
| COc1ccc(/C=C(/C#N)c2cc(OC)c(OC)c(OC)c2)cc1NC(=O)[C@@H](N)Cc1ccccc1 [(E)-3-(3-Amino-4-methoxyphenyl)-2-(3,4,5-trimethoxyphenyl)-prop-2-enenitrile-L-phenylalanineamide Hydrochloride] | 5 | 80 | inhibition in vivo at 40 mg/kg (Colon 26; [3]): 76.7% |
| COc1ccc(/C=C(/C#N)c2cc(OC)c(OC)c(OC)c2)cc1NC(=O)[C@@H](N)CCC(=O)O [(E)-3-(3-Amino-4-methoxyphenyl)-2-(3,4,5-trimethoxyphenyl)-prop-2-enenitrile-L-glutamylamide Hydrochloride] | 4 | 80 | inhibition in vivo at 40 mg/kg (Colon 26; [3]): 77% |
| COc1ccc(/C=C(/C#N)c2cc(OC)c(OC)c(OC)c2)cc1NC(=O)[C@@H](N)CCCCN [(E)-3-(3-Amino-4-methoxyphenyl)-2-(3,4,5-trimethoxyphenyl)-prop-2-enenitrile-L-lysineamide Dihydrochloride] | 13 | 20 | inhibition in vivo at 10 mg/kg (Colon 26; [4]): 33.8% |
| COc1ccc(/C=C\c2cc(OC)c(OC)c(OC)c2)cc1NC(=O)CN [(Z)-1-(3-Amino-4-methoxyphenyl)-2-(3,4,5-trimethoxyphenyl)-ethene-glycineamide] | 2 (≈ 5.37 nM) | 80 | inhibition in vivo at 40 mg/kg (Colon 26): 33.3% |
| COc1ccc(/C=C(/C#N)c2cc(OC)c(OC)c(OC)c2)cc1NC(=O)CN [(E)-3-(3-Amino-4-methoxyphenyl)-2-(3,4,5-trimethoxyphenyl)-prop-2-enenitrile-glycineamide Hydrochloride] | 3 | 40 | inhibition in vivo at 20 mg/kg (Colon 26): 85.7% |
| COc1ccc(/C=C(/C#N)c2cc(OC)c(OC)c(OC)c2)cc1NC(=O)[C@@H]1CCCN1 [(E)-3-(3-Amino-4-methoxyphenyl)-2-(3,4,5-trimethoxyphenyl)-prop-2-enenitrile-L-prolineamide Hydrochloride] | 200 | 40 | inhibition in vivo at 40 mg/kg (Colon 26; [3]): 68.9% |
| COc1ccc(/C=C\c2cc(OC)c(OC)c(OC)c2)cc1NC(=O)[C@@H](N)CO [(Z)-1-(3-Amino-4-methoxyphenyl)-2-(3,4,5-trimethoxyphenyl)-ethene-L-serineamide] | 4 (≈ 9.94 nM) |  | inhibition in vivo at 80 mg/kg (Colon 26; [5]): 72.9% |
| COc1ccc(/C=C(/C#N)c2cc(OC)c(OC)c(OC)c2)cc1NC(=O)[C@@H](N)CC(=O)O [(E)-3-(3-Amino-4-methoxyphenyl)-2-(3,4,5-trimethoxyphenyl)-prop-2-enenitrile-L-aspartylamide Hydrochloride] | 2 | 40 | inhibition in vivo at 10 mg/kg (Colon 26; [4]): 1.7% |
| COc1ccc(/C=C(/C#N)c2cc(OC)c(OC)c(OC)c2)cc1NC(=O)[C@@H](N)CO [(E)-3-(3-Amino-4-methoxyphenyl)-2-(3,4,5-trimethoxyphenyl)-prop-2-enenitrile-L-serineamide Hydrochloride] | 2 |  | inhibition in vivo at 80 mg/kg (Colon 26; [5]): 75% |
| COc1ccc(/C=C(/C#N)c2cc(OC)c(OC)c(OC)c2)cc1NC(=O)[C@@H](N)[C@@H](C)O [(E)-3-(3-Amino-4-methoxyphenyl)-2-(3,4,5-trimethoxyphenyl)-prop-2-enenitrile-L-threonineamide Hydrochloride] | 6 |  | inhibition in vivo at 40 mg/kg (Colon 26; [3]): 67% |
| COc1ccc(/C=C\c2cc(OC)c(OC)c(OC)c2)cc1NC(=O)[C@@H](N)[C@@H](C)O [(Z)-1-(3-Amino-4-methoxyphenyl)-2-(3,4,5-trimethoxyphenyl)-ethene-L-threonineamide] | 6 (≈ 14.4 nM) |  | inhibition in vivo at 80 mg/kg (Colon 26): 62.2% |
| COc1ccc(/C=C(/C#N)c2cc(OC)c(OC)c(OC)c2)cc1NC(=O)[C@@H](N)CCCN [(E)-3-(3-Amino-4-methoxyphenyl)-2-(3,4,5-trimethoxyphenyl)-prop-2-enenitrile-L-ornithineamide Dihydrochloride] | 50 |  | inhibition in vivo at 10 mg/kg (Colon 26): 48.9% |
| COc1ccc(/C=C(/C#N)c2cc(OC)c(OC)c(OC)c2)cc1NC(=O)[C@H](C)N [(E)-3-(3-Amino-4-methoxyphenyl)-2-(3,4,5-trimethoxyphenyl)-prop-2-enenitrile-L-alanineamide Hydrochloride] | 0.5 | 80 | inhibition in vivo at 20 mg/kg (Colon 26; 20 mg/kg, intravenously once a day on day 7, day 11 and day 15, tumor volume on Day 21): 71% |
| COc1ccc(/C=C\c2cc(OC)c(OC)c(OC)c2)cc1NC(=O)[C@@H](N)CC(C)C [(Z)-1-(3-Amino-4-methoxyphenyl)-2-(3,4,5-trimethoxyphenyl)-ethene-L-leucineamide] | 6 (≈ 14 nM) | 40 | inhibition in vivo at 40 mg/kg (Colon 26): 50.9% |
| COc1ccc(/C=C\c2cc(OC)c(OC)c(OC)c2)cc1NC(=O)[C@H](C)N [(Z)-1-(3-Amino-4-methoxyphenyl)-2-(3,4,5-trimethoxyphenyl)-ethene-L-alanineamide] | 2 (≈ 5.18 nM) | 80 | inhibition in vivo at 40 mg/kg (Colon 26): 51.9% |
